For eight molecules, IC50 and EC50 results are on record in US12459922B2 (Gilead Sciences, Inc., priority 2022, dated 2025).

In one assay the target is T1, PARP7 (Homo sapiens, UniProt Q7Z3E1).
T1 sequence (Q7Z3E1 1-657): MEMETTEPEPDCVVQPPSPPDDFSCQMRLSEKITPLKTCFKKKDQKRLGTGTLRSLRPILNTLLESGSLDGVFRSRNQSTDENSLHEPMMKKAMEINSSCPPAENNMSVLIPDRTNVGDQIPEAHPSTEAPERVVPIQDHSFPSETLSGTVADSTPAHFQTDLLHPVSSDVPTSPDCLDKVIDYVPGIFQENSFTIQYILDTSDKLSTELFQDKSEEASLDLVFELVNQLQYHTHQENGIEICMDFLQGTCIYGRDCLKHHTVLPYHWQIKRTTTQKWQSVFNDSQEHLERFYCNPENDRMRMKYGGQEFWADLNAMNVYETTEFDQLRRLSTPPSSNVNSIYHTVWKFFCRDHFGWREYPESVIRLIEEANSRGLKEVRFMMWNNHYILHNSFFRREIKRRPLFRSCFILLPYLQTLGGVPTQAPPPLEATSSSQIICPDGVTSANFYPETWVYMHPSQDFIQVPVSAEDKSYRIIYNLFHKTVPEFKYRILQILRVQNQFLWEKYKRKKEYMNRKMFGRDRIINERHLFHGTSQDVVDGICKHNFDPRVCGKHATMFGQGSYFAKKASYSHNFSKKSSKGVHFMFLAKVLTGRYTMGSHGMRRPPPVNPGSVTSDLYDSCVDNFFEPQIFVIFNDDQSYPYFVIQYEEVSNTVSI
As to the kind of experiment: Probe Displacement Assay for PARP7 (MSD electrochemiluminescent, biotinylated probe RBNO11147). To be noted: displacement of biotinylated probe RBNO11147 from PARP7 NAD+-binding site; read-out: MSD ProbeDisp PARP7 IC50.

Assay [1] concerns endogenous cellular STAT1 (phosphorylated at Tyr701) in NCI-H1373 cells. As to the kind of experiment: Phospho-STAT1 (Tyr701) LANCE Ultra TR-FRET Detection Assay. The class given is cell-based. As to conditions: Homo sapiens, NCI-H1373, 48 h, phospho-STAT1 (Tyr701) induction, read-out: NH1373 pSTAT1 EC50. On the technique in general: In TR-FRET formats the signal depends on donor and acceptor labels being close together.

A word on the IC50: it is the point on the concentration scale where inhibition reaches its midpoint. As usually defined, the EC50 is the concentration at which the effect is half-maximal.

Regarding `C[C@@H](CCCn1ccc2cc(-c3ccc(F)cn3)c(F)cc2c1=O)Nc1cn[nH]c(=O)c1C(F)(F)F` [Example 35, 7-fluoro-6-(5-fluoro-2-pyridyl)-2-[(4S)-4-[[6-oxo-5-(trifluoromethyl)-1H-pyridazin-4-yl]amino]pentyl]isoquinolin-1-one], the IC50 on PARP7 came to 0.5 nM. For the same molecule, the EC50 in assay [1] worked out at 436 nM.

Regarding `C[C@@H](CCCn1ccc2cc(-c3cc4ccccn4n3)c(F)cc2c1=O)Nc1cn[nH]c(=O)c1C(F)(F)F` [Example 304, (S)-7-fluoro-2-(4-((6-oxo-5-(trifluoromethyl)-1,6-dihydropyridazin-4-yl)amino)pentyl)-6-(pyrazolo[1,5-a]pyridin-2-yl)isoquinolin-1(2H)-one], on PARP7, the IC50 came to 0.199 nM. Further, in assay [1], the EC50 worked out at 25.6 nM.

On to `O=c1[nH]ncc(N[C@@H](CO)CCCn2ccc3cc(-c4ncc(C(F)(F)F)cn4)c(F)c(F)c3c2=O)c1C(F)(F)F` [Example 163, 7,8-difluoro-2-[(4R)-5-hydroxy-4-[[6-oxo-5-(trifluoromethyl)-1H-pyridazin-4-yl]amino]pentyl]-6-[5-(trifluoromethyl)pyrimidin-2-yl]isoquinolin-1-one], for which, at PARP7, the IC50 amounted to 0.341 nM. In assay [1], the EC50 was 62.8 nM.

Take `C[C@@H](CCCn1ccc2cc(-c3nc(C(F)F)cs3)c(F)cc2c1=O)Nc1cn[nH]c(=O)c1C(F)(F)F` [Example 301, (S)-6-(4-(difluoromethyl)thiazol-2-yl)-7-fluoro-2-(4-((6-oxo-5-(trifluoromethyl)-1,6-dihydropyridazin-4-yl)amino)pentyl)isoquinolin-1(2H)-one]: the IC50 at PARP7 stood at 0.508 nM. Also, the EC50 in assay [1] turned out to be 549 nM.

In the case of `Nc1nc(-c2cc3ccn(C[C@@H]4CCC[C@H](Nc5cn[nH]c(=O)c5C(F)(F)F)C4)c(=O)c3cc2F)ncc1C(F)(F)F` [Example 184, 6-[4-amino-5-(trifluoromethyl)pyrimidin-2-yl]-7-fluoro-2-[[(1R,3S)-3-[[6-oxo-5-(trifluoromethyl)-1H-pyridazin-4-yl]amino]cyclohexyl]methyl]isoquinolin-1-one], on PARP7, the IC50 was 0.311 nM. Besides, in assay [1], the EC50 stood at 1.8 nM.

With `O=c1[nH]ncc(N2C[C@H]3C[C@H]3[C@H]2CCCn2ccc3cc(-c4ccc(C(F)(F)F)cn4)cc(F)c3c2=O)c1C(F)(F)F` [Example 48, 8-fluoro-2-[3-[(1R,2R,5S)-3-[6-oxo-5-(trifluoromethyl)-1H-pyridazin-4-yl]-3-azabicyclo[3.1.0]hexan-2-yl]propyl]-6-[5-(trifluoromethyl)-2-pyridyl]isoquinolin-1-one], on PARP7, the IC50 was 0.897 nM. Also, the EC50 in assay [1] was determined as 338 nM.

Regarding `CC(=O)c1c(N[C@@H](C)CCCn2ccc3cc(-c4ncc(C(F)(F)F)cn4)ccc3c2=O)cn[nH]c1=O` [Example 15, 2-[(4S)-4-[(5-acetyl-6-oxo-1H-pyridazin-4-yl)amino]pentyl]-6-[5-(trifluoromethyl)pyrimidin-2-yl]isoquinolin-1-one], the IC50 at PARP7 came out at 0.3 nM. Also, the EC50 in assay [1] stood at 576 nM.

On to `C[C@@H](CCCn1ccc2cc(-c3ccc(OC(F)F)cn3)c(F)c(F)c2c1=O)Nc1cn[nH]c(=O)c1C(F)(F)F` [Example 57, (S)-6-(5-(difluoromethoxy)pyridin-2-yl)-7,8-difluoro-2-(4-((6-oxo-5-(trifluoromethyl)-1,6-dihydropyridazin-4-yl)amino)pentyl)isoquinolin-1(2H)-one], for which the IC50 on PARP7 came out at 0.613 nM. The EC50 in assay [1] came out at 144 nM.
